Key:
[1] = molecular target: T1, topo I (Homo sapiens, UniProt P11387); test: Reverse transcriptase assay, linear cDNA synthesis from 5'/3' HIV-1 RNA template in presence of topo I; assay type: biochemical; conditions: HIV-1 RT with topo I 0.16 unit; CPT 400, 40, 4 and 0 μM; concentration dependent
T1 sequence (P11387 1-765): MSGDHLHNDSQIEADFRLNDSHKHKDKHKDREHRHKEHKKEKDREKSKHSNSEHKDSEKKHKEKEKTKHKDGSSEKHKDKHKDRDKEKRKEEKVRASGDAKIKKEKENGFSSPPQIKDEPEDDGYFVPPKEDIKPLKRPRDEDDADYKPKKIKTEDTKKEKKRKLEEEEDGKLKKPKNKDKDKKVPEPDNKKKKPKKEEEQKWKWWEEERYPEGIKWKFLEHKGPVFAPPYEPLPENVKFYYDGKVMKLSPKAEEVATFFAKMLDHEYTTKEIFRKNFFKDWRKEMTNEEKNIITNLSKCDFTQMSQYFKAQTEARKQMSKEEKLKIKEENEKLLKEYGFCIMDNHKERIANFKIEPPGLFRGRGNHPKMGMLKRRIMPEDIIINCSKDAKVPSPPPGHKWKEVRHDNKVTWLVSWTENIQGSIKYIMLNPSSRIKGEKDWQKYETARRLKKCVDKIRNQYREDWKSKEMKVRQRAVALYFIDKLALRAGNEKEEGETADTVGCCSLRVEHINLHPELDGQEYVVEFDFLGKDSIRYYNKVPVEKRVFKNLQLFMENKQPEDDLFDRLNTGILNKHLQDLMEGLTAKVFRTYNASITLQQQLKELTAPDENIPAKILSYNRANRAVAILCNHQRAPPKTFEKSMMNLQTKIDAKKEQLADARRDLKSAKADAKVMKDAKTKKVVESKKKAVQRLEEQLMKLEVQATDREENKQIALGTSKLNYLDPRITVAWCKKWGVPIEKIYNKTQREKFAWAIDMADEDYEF
Description: Influence of cellular topo I on HIV-1 RT activity. […] An end-labeled primer (*) was employed to initiate cDNA synthesis and would be expected to result in a product of 1481 nucleotides (nt). […] Phosphorescence image analysis of cDNA products following agarose gel electrophoresis. The presence or absence of topo I is indicated by + and −, respectively. Similarly the presence or absence of CPT is indicated by + and −.
To analyze the influence of topo I on linear cDNA synthesis, the template containing both the 5′ and 3′ ends of HIV-1 RNA was used. cDNA synthesis expected to result in a product of 1481 nucleotides was initiated using a nef gene primer end-labeled with [θ-^32P]ATP (5′-[sequence]-3′; nucleotides 9002-9027). Reaction mixtures obtained 300 ng of RNA template in 50 μl of 50 Mm TrisHCL (pH 8.0) containing 150 Mm KCl, 5 Mm MgCl^2, 5 Mm dithiothreitol, 0.5 Mm EGTA, 0.4 unit of RNasin (Promega), 0.1 unit of HIV-1 RT (Seikagaku, Kogyo, Tokyo), 100 ng of primer, 250 μM dNTPs, bovine serum albumin at 0.1 mg/ml, GST-P15 at 0.8 μg/ml 10 μl of glutathione beads (50% vol/vol; Pharmacia), and topo I at final concentrations of 0.16, 0.032 and 0.0064 unit. Samples were incubated at 37° C. for 25 min. […] Gels were dried onto nylon membranes and analyzed with a Fuji BAS2000 phosphorescence imager.

[2] = molecular target: T1, topo I; test: Reverse transcriptase assay, ssDNA synthesis and strand transfer in presence of topo I; assay type: biochemical; conditions: topo I 0.16 unit per 50 μl; CPT 400, 40 and 4 μM; concentration-dependent
Description: Analysis of ssDNA synthesis and strand transfer. […] Schematic representation of two RNA templates employed. […] The 3′RNA represents the 3′end of the HIV-1 RNA and contains the R region and the poly(A) tail. ssDNA synthesis was initiated by an end labeled primer (*) corresponding to the primer binding site (PBS) in the 5′RNA. After strand transfer to the 3′RNA, this would be expected to result in a cDNA product of 867 nucleotides. […] Phosphorescence image analysis of the cDNA product after agarose gel electrophoresis. The presence and absence of 5′RNA and 3′RNA templates are indicated by + and −, respectively. The effects of CPT at concentrations of 400, 40 and 4 μM are indicated by +. Topo I was used at the final concentration of 0.16 unit per 50 μl in all experiments.
Reaction mixtures obtained 300 ng of RNA template in 50 μl of 50 Mm TrisHCL (pH 8.0) containing 150 Mm KCl, 5 Mm MgCl^2, 5 Mm dithiothreitol, 0.5 Mm EGTA, 0.4 unit of RNasin (Promega), 0.1 unit of HIV-1 RT (Seikagaku, Kogyo, Tokyo), 100 ng of primer, 250 μM dNTPs, bovine serum albumin at 0.1 mg/ml, GST-P15 at 0.8 μg/ml 10 μl of glutathione beads (50% vol/vol; Pharmacia), and topo I at final concentrations of 0.16, 0.032 and 0.0064 unit. Samples were incubated at 37° C. for 25 min. […] Gels were dried onto nylon membranes and analyzed with a Fuji BAS2000 phosphorescence imager. […] Reaction products were analyzed as above.

[3] = test system: HIV-1 IIIB strain; test: Southern hybridization of DNA from HIV-1 infected MT2 cells with drug treatment; assay type: cell-based; conditions: HIV-1 IIIB 0.1 m.o.i., 72 hrs, drugs 0.01-10 μg/ml
Protocol: FIG. 5. Southern hybridization of DNA from HIV-1 infected cells with drug treatment. […] cells, MT2, infected with the HIV-1 IIIB strain were treated with AZT, CPT or TAN at concentrations (from right to left) AZT 0.01, 0.1, 1.0, 10 μg/ml, CPT 0.01, 0.1, 1.0 μg/ml, TAN 0.01, 0.1, 1.0 μg/ml respectively.
MT2 cells were incubated for 2 hours with HIV-1 IIIB strain (Ratner et al., 1985 Nature 313: 277-284) at 0.1 m.o.i. with drugs. Concentrations ranged from no drugs 0,0, AZT 0.01, 0.1, 1, 10 μg/mi, CPT 0.01, 0. 1, 1 μg/ml TAN 0.01, 0. 1, 1 μg/ml, CPT 0.1, 1, 10 μg/ml, TAN 0.1, 1, 10 μg/mi respectively (FIG. 5). After washing with PBS 3 times, cells were incubated again for 72 hrs with or without concentration of drugs as indicated, then lysed with 1% SDS, 10 Mm Tris HCl (pH 8.0), 5 Mm EDTA, 1M NaCl(Hirt's method. Following overnight incubation at 4 C., large molecule of DNA were precipitated by centrifugation. Supernatants were treated with 100 μg/ml of protease K at 56° C. for 2 hrs and after treated with phenol-chloroform, small molecules of DNA were precipitated and subjected to southern hybridization. Transferred nylon membrane (Schleicher & Schuell) were probed with (α-^32P) dCTP-random-primed-labeled primer.

[4] = test system: HIV-1; conditions: cited from earlier work
[5] = test system: HIV-1; conditions: AIDS patients; cited from earlier work

SMILES: CC[C@@]1(O)C(=O)OCc2c1cc1n(c2=O)Cc2cc3ccccc3nc2-1 [CPT, camptothecin]
- cDNA synthesis (1481 nucleotide product) [1]: inhibited
- cDNA product of 867 nucleotides (ssDNA synthesis and strand transfer) [2]: inhibited
- HIV-replication in HIV-infected cells, Southern blot analysis [3]: reduced HIV-replication

SMILES: CC(C)c1nc(CN(C)C(=O)N[C@H](C(=O)N[C@@H](Cc2ccccc2)C[C@H](O)[C@H](Cc2ccccc2)NC(=O)OCc2cncs2)C(C)C)cs1 [ABT-538]
- antiviral activity in vitro [4]: potent antiviral activity
- CD4 lymphocyte counts [5]: rise substantially
- plasma HIV-1 levels [5]: decrease exponentially
